Results: ChEMBL document CHEMBL1201862, “PubChem BioAssay data set” (2004)
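Step 1: Grow cells in 96-well plates. Step 2: Expose to compound for 48 hours at 5 concentrations. Step 3: Interpolate endpoints linearly; if unreached, use highest concentration. At the GI50, growth is halved.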 Activity calls are given as the source filed them. Cut-off read from the data, not from the text of the source: active = GI50 up to about 1.1 µM and inactive = higher.

What was measured:
Test in all cases: DTP human tumour cell line panel, 48 h
[1] = test system: Hs-578T
[2] = test system: IGROV-1
[3] = test system: TK-10
[4] = test system: NCI-H23
[5] = test system: MDA-MB-231
[6] = test system: SF-295
[7] = test system: M14
[8] = test system: SN12C
[9] = test system: SF-539
[10] = test system: MOLT-4
[11] = test system: UACC-62
[12] = test system: UACC-257
[13] = test system: Malme-3M
[14] = test system: NCI-H522
[15] = test system: SW-620
[16] = test system: LOX IMVI
[17] = test system: 786-0
[18] = test system: MCF7
[19] = test system: KM12
[20] = test system: SK-MEL-2
[21] = test system: SK-MEL-5
[22] = test system: MDA-N
[23] = test system: SF-268
[24] = test system: HL-60
[25] = test system: HCT-116
[26] = test system: SK-OV-3
[27] = test system: K562
[28] = test system: HCT-15
[29] = test system: SNB-19
[30] = test system: ACHN
[31] = test system: HOP-62
[32] = test system: OVCAR-3
[33] = test system: T47D
[34] = test system: A498
[35] = test system: OVCAR-5
[36] = test system: NCI/ADR-RES
[37] = test system: DU-145
[38] = test system: COLO 205
[39] = test system: UO-31
[40] = test system: NCI-H460
[41] = test system: SR
[42] = test system: BT-549
[43] = test system: RXF 393
[44] = test system: HCC 2998
[45] = test system: PC-3
[46] = test system: U-251
[47] = test system: CCRF-CEM
[48] = test system: OVCAR-8
[49] = test system: OVCAR-4
[50] = test system: HT-29
[51] = test system: SNB-75
[52] = test system: CAKI-1
[53] = test system: SK-MEL-28
[54] = test system: EKVX
[55] = test system: A549
[56] = test system: RPMI-8226
[57] = test system: MDA-MB-435
[58] = test system: NCI-H226
[59] = test system: HOP-92

N#CC(c1ccccc1)(c1ccccc1)[C@@H](c1ccccc1)[C@H](Cc1ccccc1)NS(=O)(=O)c1ccccc1
GI50 [1]: > 100 µM (inactive)
GI50 [2]: > 100 µM (inactive)
GI50 [3]: > 100 µM (inactive)
GI50 [4]: > 100 µM (inactive)
GI50 [5]: > 100 µM (inactive)
GI50 [6]: > 100 µM (inactive)
GI50 [7]: > 100 µM (inactive)
GI50 [8]: > 100 µM (inactive)
GI50 [9]: > 100 µM (inactive)
GI50 [10]: 15.7 µM (inactive)
GI50 [11]: > 100 µM (inactive)
GI50 [12]: > 100 µM (inactive)
GI50 [13]: > 100 µM (inactive)
GI50 [14]: > 100 µM (inactive)
GI50 [15]: > 100 µM (inactive)
GI50 [16]: > 100 µM (inactive)
GI50 [17]: > 100 µM (inactive)
GI50 [18]: > 100 µM (inactive)
GI50 [19]: > 100 µM (inactive)
GI50 [20]: > 100 µM (inactive)
GI50 [21]: 96.2 µM (inactive)
GI50 [22]: > 100 µM (inactive)
GI50 [23]: > 100 µM (inactive)
GI50 [24]: 4.17 µM (inactive)
GI50 [25]: > 100 µM (inactive)
GI50 [26]: > 100 µM (inactive)
GI50 [27]: > 100 µM (inactive)
GI50 [28]: > 100 µM
GI50 [29]: > 100 µM (inactive)
GI50 [30]: > 100 µM (inactive)
GI50 [31]: > 100 µM (inactive)
GI50 [32]: > 100 µM (inactive)
GI50 [33]: > 100 µM (inactive)
GI50 [34]: > 100 µM (inactive)
GI50 [35]: > 100 µM (inactive)
GI50 [36]: > 100 µM (inactive)
GI50 [37]: > 100 µM (inactive)
GI50 [38]: > 100 µM (inactive)
GI50 [39]: > 100 µM (inactive)
GI50 [40]: 66.7 µM (inactive)
GI50 [41]: 83.9 µM (inactive)
GI50 [42]: > 100 µM (inactive)
GI50 [43]: 84.7 µM (inactive)
GI50 [44]: > 100 µM (inactive)
GI50 [45]: 46.7 µM (inactive)
GI50 [46]: > 100 µM (inactive)
GI50 [47]: > 100 µM (inactive)
GI50 [48]: > 100 µM (inactive)
GI50 [49]: > 100 µM (inactive)
GI50 [50]: > 100 µM (inactive)
GI50 [51]: > 100 µM (inactive)
GI50 [52]: > 100 µM (inactive)
GI50 [53]: > 100 µM (inactive)
GI50 [54]: > 100 µM (inactive)
GI50 [55]: > 100 µM (inactive)
GI50 [56]: 10.3 µM (inactive)
GI50 [57]: > 100 µM (inactive)

N#CC1(C#N)NC(c2ccccc2)C(C#N)(C#N)NC1c1ccccc1 (stereo not drawn)
GI50 [1]: > 100 µM (inactive)
GI50 [2]: > 100 µM (inactive)
GI50 [3]: > 100 µM (inactive)
GI50 [4]: > 100 µM (inactive)
GI50 [5]: 25.9 µM (inactive)
GI50 [6]: > 100 µM (inactive)
GI50 [7]: > 100 µM (inactive)
GI50 [8]: > 100 µM (inactive)
GI50 [9]: > 100 µM (inactive)
GI50 [10]: > 100 µM (inactive)
GI50 [11]: > 100 µM (inactive)
GI50 [12]: > 100 µM (inactive)
GI50 [13]: > 100 µM (inactive)
GI50 [14]: 27.4 µM (inactive)
GI50 [15]: > 100 µM (inactive)
GI50 [16]: > 100 µM (inactive)
GI50 [17]: > 100 µM (inactive)
GI50 [18]: > 100 µM (inactive)
GI50 [19]: > 100 µM (inactive)
GI50 [20]: > 100 µM (inactive)
GI50 [21]: > 100 µM (inactive)
GI50 [22]: > 100 µM (inactive)
GI50 [23]: > 100 µM (inactive)
GI50 [24]: 41.1 µM (inactive)
GI50 [25]: > 100 µM (inactive)
GI50 [26]: > 100 µM (inactive)
GI50 [27]: > 100 µM (inactive)
GI50 [28]: > 100 µM
GI50 [29]: > 100 µM (inactive)
GI50 [30]: > 100 µM (inactive)
GI50 [31]: > 100 µM (inactive)
GI50 [32]: > 100 µM (inactive)
GI50 [33]: > 100 µM (inactive)
GI50 [34]: > 100 µM (inactive)
GI50 [35]: > 100 µM (inactive)
GI50 [36]: > 100 µM (inactive)
GI50 [37]: > 100 µM (inactive)
GI50 [58]: > 100 µM (inactive)
GI50 [38]: > 100 µM (inactive)
GI50 [39]: > 100 µM (inactive)
GI50 [40]: > 100 µM (inactive)
GI50 [59]: 86.7 µM (inactive)
GI50 [42]: > 100 µM (inactive)
GI50 [43]: > 100 µM (inactive)
GI50 [44]: > 100 µM (inactive)
GI50 [45]: > 100 µM (inactive)
GI50 [46]: > 100 µM (inactive)
GI50 [47]: > 100 µM (inactive)
GI50 [48]: > 100 µM (inactive)
GI50 [49]: > 100 µM (inactive)
GI50 [50]: > 100 µM (inactive)
GI50 [51]: > 100 µM (inactive)
GI50 [52]: 6.59 µM (inactive)
GI50 [53]: > 100 µM (inactive)
GI50 [54]: > 100 µM (inactive)
GI50 [55]: > 100 µM (inactive)
GI50 [56]: > 100 µM (inactive)
GI50 [57]: > 100 µM (inactive)

COc1ccc(-c2cc(-c3ccc(O)cc3O)c(C#N)c(=O)[nH]2)cc1
GI50 [1]: 18.5 µM (inactive)
GI50 [3]: 26.5 µM (inactive)
GI50 [4]: 26.2 µM (inactive)
GI50 [5]: 17.3 µM (inactive)
GI50 [6]: 15.7 µM (inactive)
GI50 [7]: 16 µM (inactive)
GI50 [8]: 18.8 µM (inactive)
GI50 [9]: 17.6 µM (inactive)
GI50 [10]: 18.6 µM (inactive)
GI50 [11]: 15.8 µM (inactive)
GI50 [12]: 19.5 µM (inactive)
GI50 [13]: 23.1 µM (inactive)
GI50 [15]: 21.3 µM (inactive)
GI50 [16]: 16.6 µM (inactive)
GI50 [17]: 18.5 µM (inactive)
GI50 [18]: 27 µM (inactive)
GI50 [19]: 22.6 µM (inactive)
GI50 [21]: 15.5 µM (inactive)
GI50 [22]: 11.6 µM (inactive)
GI50 [23]: 24.3 µM (inactive)
GI50 [24]: 29.7 µM (inactive)
GI50 [25]: 19.1 µM (inactive)
GI50 [26]: 16.1 µM (inactive)
GI50 [27]: 25.2 µM (inactive)
GI50 [28]: 31.9 µM
GI50 [29]: 21.9 µM (inactive)
GI50 [30]: 43.2 µM (inactive)
GI50 [31]: 17.9 µM (inactive)
GI50 [32]: 20.5 µM (inactive)
GI50 [33]: 93.3 µM (inactive)
GI50 [35]: 18.6 µM (inactive)
GI50 [36]: 19.6 µM (inactive)
GI50 [37]: 40.6 µM (inactive)
GI50 [58]: 20.6 µM (inactive)
GI50 [38]: 16.6 µM (inactive)
GI50 [39]: 34.4 µM (inactive)
GI50 [40]: 23.1 µM (inactive)
GI50 [41]: 16.7 µM (inactive)
GI50 [59]: 12.6 µM (inactive)
GI50 [42]: 23.6 µM (inactive)
GI50 [43]: 15.9 µM (inactive)
GI50 [45]: 14.4 µM (inactive)
GI50 [46]: 18.7 µM (inactive)
GI50 [47]: 23.9 µM (inactive)
GI50 [48]: 31.9 µM (inactive)
GI50 [49]: 20.1 µM (inactive)
GI50 [50]: 18.1 µM (inactive)
GI50 [52]: 23.8 µM (inactive)
GI50 [53]: 15.1 µM (inactive)
GI50 [54]: 15.2 µM (inactive)
GI50 [55]: 23.4 µM (inactive)
GI50 [56]: 15.7 µM (inactive)
GI50 [57]: 13.8 µM (inactive)
